Patent US12509407B2, “Biostimulant agent for treating plants and/or plant seed” (UNIFERX INTERNATIONAL GMBH, priority 2019, dated 2025)

Key:
Type in all cases: in vivo
corn hybrid DKC 3511 = assay: Comparative test 1: field trial, growth of leaf area of corn under heat stress; conditions: corn DKC 3511, heat stress >30° C., 10 days after single spray treatment, 1.15 liters protein hydrolysate and/or 0.68 kilograms glycine betaine per hectare
Description: In a first field trial, the effect of the biostimulant agent according to the invention on the Growth of the leaf area of the corn hybrid DKC 3511 under heat stress was investigated. For comparison, the corresponding effect of the individual components protein hydrolysate and betaine was tested in parallel, each in the same amounts as contained in the biostimulant agent.
The field trial was conducted in June 2019 on soils with brittle black earth. The humus content was 3.2-3.4% and the depth of the humus layer was 60-70 cm. Soil pH was 6.2-6.6, alkaline hydrolyzed nitrogen content was […] per kilogram, available phosphorus compounds content was […] per kilogram, and available potassium content was 120-130 grams per kilogram. […]
(§1) All three groups of plants were treated once with the corresponding solution at the same times and with the same quantities. […]
(§2) To determine the biological effect of the different treatments, the leaf area of the plants (sum of leaf area from the third to the sixth leaf from the top in square meters per hectare of field area) was determined in each case before the start of the treatments and 10 days after the treatment. Thereby, the biological effect corresponds to the determined increase of the leaf area at the end of the study period in percent.

soybean var. Niagara = assay: Comparative test 3: field trial, increase in leaf area of soybean under heat stress; conditions: 10 days after treatment, third to sixth leaf from the top
Description: (§3) The field trial was conducted in June 2019 on soils with brittle black earth. The humus content was 3.2-3.4% and the depth of the humus layer was 60-70 cm. Soil pH was 6.2-6.6, alkaline hydrolyzed nitrogen content was […] per kilogram, available phosphorus compounds content was […] per kilogram, and available potassium content was […] per kilogram. The average annual precipitation was 633 millimeters, whereas the precipitation in June was 87 millimeters. The average annual temperature was 7.4° C., the average temperature in June was 17.6° C., the average relative humidity was 76%, and the average relative humidity in June was 66%.
(§4) During the duration of the field trial, the treated plants were exposed to heat stress with daily temperatures exceeding 30° C. […]
as §1
as §2, with “percent. […]” for “percent.”

[1] = system: sunflower hybrid SI Diamantis; assay: Comparative test 2: field trial, growth of leaf area of sunflowers under heat stress; conditions: heat stress >30° C., 10 days after treatment
Description: as §3, §4, §1
as §2, with “percent. […]” for “percent.”

SMILES: C[N+](C)(C)CC(=O)O [betaine, glycine betaine]
- increase in leaf area (biological effect) (corn hybrid DKC 3511): 0.2%
- increase in leaf area (biological effect) (soybean var. Niagara): no increase in leaf area was observed at all
- increase in leaf area (biological effect) [1]: no increase in leaf area was observed at all
